Structures can show the parent of a compound that is named as a salt. Where two headings read alike, the source gives them in different places.
Legend:
[1] = test system: MSSA ATCC 29213; experiment: MIC by CLSI broth microdilution, MSSA; type: cell-based; details: Staphylococcus aureus, read-out: MSSA MIC
Text: (§1) In Vitro Susceptibility. Clinical and Laboratory Standards Institute (CLSI) guidelines were followed for the determination of the minimum inhibitory concentration (MIC), using cation-adjusted Mueller Hinton broth microdilution at a starting inoculum level of 5 × 10^5 colony forming units (CFUs) per mL [24, 25]. MIC was read by optical density on a BioTek Synergy H1 plate reader (BioTek, Winooski, VT, USA) at 595 nm. Strains used were MRSA ATCC BAA-1556 (USA300, SCCmecIV, pvl^+) and MSSA ATCC 29213 (American Type Culture Collection, Manassas, VA, USA). MIC data are reported as a range to reflect the fact that the value is determined using step dilution.

[2] = test system: MRSA ATCC BAA-1556 (USA300); experiment: MIC by CLSI broth microdilution, MRSA; type: cell-based, Staphylococcus aureus; details: for MIC: Staphylococcus aureus, read-out: MRSA MIC
Text: as §1

[3] = cited from earlier work

`CN[C@H](CC(C)C)C(=O)N[C@H]1C(=O)N[C@@H](CC(N)=O)C(=O)N[C@H]2C(=O)N[C@H]3C(=O)N[C@H](C(=O)N[C@H](C(=O)O)c4cc(O)cc(O)c4-c4cc3ccc4O)[C@H](O)c3ccc(c(Cl)c3)Oc3cc2cc(c3O[C@@H]2O[C@H](CO)[C@@H](O)[C@H](O)[C@H]2O[C@H]2C[C@](C)(N)[C@H](O)[C@H](C)O2)Oc2ccc(cc2Cl)[C@H]1O` [Vancomycin, Vancomycin HCl, reference compound] showed an MIC [1] of 0.5 to 1 µg/mL and an MIC [2] of 0.5 to 2 µg/mL.
In the case of `CCCCCCCCCCNC(=O)CN[C@@]1(C)C[C@H](O[C@H]2[C@H](Oc3c4cc5cc3Oc3ccc(cc3Cl)[C@@H](O)[C@@H](NC(=O)[C@@H](CC(C)C)NC)C(=O)N[C@@H](CC(N)=O)C(=O)N[C@H]5C(=O)N[C@H]3C(=O)N[C@H](C(=O)N[C@H](C(=O)O)c5cc(O)cc(O)c5-c5cc3ccc5O)[C@H](O)c3ccc(c(Cl)c3)O4)O[C@H](CO)[C@@H](O)[C@@H]2O)O[C@@H](C)[C@H]1O` [RV94, N^van-2-amino-N-decylacetamide vancomycin], the MIC ([1]; ATCC 29213, CLSI) is reported as 0.031 to 0.063 µg/mL, the “potency relative to vancomycin (fold more potent)” value ([2]; MIC, MSSA and MRSA isolates) is reported as “ca. 15 fold” and the MIC ([2]; ATCC BAA-1556 (USA300), CLSI) is reported as 0.031 to 0.063 µg/mL. For the same molecule, the “pH needed to dissolve drug substance” value was > 9 and the “lung half-life, nebulized form” value ([3]; rat, in vivo, inhaled or intranasal) was “approximately 4.5 days”.
For `CCCCCCCCCCNCCN[C@@]1(C)C[C@H](O[C@H]2[C@H](Oc3c4cc5cc3Oc3ccc(cc3Cl)[C@@H](O)[C@@H](NC(=O)[C@@H](CC(C)C)NC)C(=O)N[C@@H](CC(N)=O)C(=O)N[C@H]5C(=O)N[C@H]3C(=O)N[C@H](C(=O)N[C@H](C(=O)O)c5cc(O)c(CNCP(=O)(O)O)c(O)c5-c5cc3ccc5O)[C@H](O)c3ccc(c(Cl)c3)O4)O[C@H](CO)[C@@H](O)[C@@H]2O)O[C@@H](C)[C@H]1O` [telavancin, reference compound], the “lung half-life, nebulized form” value ([3]; rats, inhalation of nebulized preparation) is given as “ca. 21 days”.

From PMC10537538, “Preclinical Investigation of a Lipoglycopeptide Dry Powder Inhalation Therapy for the Treatment of Pulmonary MRSA Infection” (Pharmaceutics, 2023)
